Numbers after ± are expanded uncertainties.

Drawing on the NIST ThermoML archive (doi:10.1021/acs.jced.6b00703), this text covers interfacial tension for nine compounds.

For the series the following is noted: 101 kPa, Liquid, Drop weight.

For `CCC(C)=O` [butanone] + O, under “292.15 K”, the interfacial tension is 0.92 ± 1 mN/m.
With `CCCCOC(C)=O` [butyl ethanoate] + O, the interfacial tension reads like this: (283.15 K) 15.3 ± 1 mN/m; (289.15 K) 14.9 ± 1 mN/m; (290.15 K) 14.95 ± 1 mN/m; (293.15 K) 15.3 ± 1 mN/m; (303.15 K) 15.2 ± 1 mN/m; (313.15 K) 15.1 ± 1 mN/m. Also, the interfacial tension (323.15 K) is 14.3 ± 1 mN/m.
Turning to `OC1CCCCC1` [cyclohexanol] + O, the interfacial tension was found to be 4.17 ± 1 mN/m (303.15 K), 4.15 ± 1 mN/m (313.15 K), 3.97 ± 1 mN/m (323.15 K) and 3.95 ± 1 mN/m (333.15 K).
For the compound `O=C1CCCCC1` [cyclohexanone] + O, the interfacial tension is given as 4.78 ± 1 mN/m (283.15 K); 4.43 ± 1 mN/m (289.15 K); 4.87 ± 1 mN/m (293.15 K); 5.08 ± 1 mN/m (303.15 K); 5.05 ± 1 mN/m (313.15 K); 4.71 ± 1 mN/m (323.15 K).
On to `CCOCC` [diethyl ether] + O, for which, under “293.15 K”, the interfacial tension is listed as 9.03 ± 1 mN/m.
Turning to `CCOC(C)=O` [ethyl acetate] + O, the interfacial tension is, setting by setting: (283.15 K) 7.61 ± 1 mN/m; (289.15 K) 7.37 ± 1 mN/m; (293.15 K) 7.29 ± 1 mN/m; (303.15 K) 7.19 ± 1 mN/m; (313.15 K) 7.15 ± 1 mN/m; (323.15 K) 6.99 ± 1 mN/m.
In the case of `CC1CCCCC1` [methylcyclohexane] + O, the interfacial tension (293.15 K) amounted to 51.4 ± 1.1 mN/m.
Regarding `CCCCCCCCO` [octan-1-ol] + O, under “289.15 K”, the interfacial tension was 9.1 ± 1 mN/m.
With `Cc1ccccc1` [toluene] + O, the interfacial tension (283.15 K) is 36.1 ± 1.1 mN/m; the interfacial tension (290.15 K) amounted to 35.8 ± 1.1 mN/m; the interfacial tension (293.15 K) was 36.3 ± 1.1 mN/m; the interfacial tension (303.15 K) is 36 ± 1.1 mN/m; the interfacial tension (313.15 K) worked out at 35.3 ± 1.1 mN/m; the interfacial tension (323.15 K) was determined as 34 ± 1 mN/m.
